Assay results published in US5278187A, “Pharmaceutical compositions” (British Technology Group Ltd., priority 1985, dated 1994).
≈ marks a conversion by molar mass, not a printed value. Where two headings read alike, the source gives them in different places.

Columns and labels:
[1] = tested on: human mammary epithelial tumor cells (MCF7); test: Cytotoxic effect on MCF7 cells, colony formation in culture; assay type: cell-based; settings: dose required to reduce by 50% the number of colonies, 37° C., 12-14 days, read-out: ID50 MCF7
Protocol: (§1) (A) The cytotoxic effects of a variety of compounds of formula (II) on human adenocarcinoma cells of the colon (LOVO) and human mammary epithelial tumor cells (MCF7) grown in culture were studied. A range of doses of the drugs was added on day one to replicate cultures of several hundred cells each, which were then incubated at 37° C. for 12-14 days. The cultures were then fixed and stained and the numbers of colonies per dish counted. The results obtained are shown in Table 1, the individual compounds being identified by the groups R1, R2 and R3 present therein, the last mentioned compound being the compound of formula (I) having R1 =H and R2 =CH3 which is used as a control. The results are expressed in terms of the ID50 which is the dose required to reduce by 50% the number of colonies growing up in the drug-treated cultures compared with untreated controls.

[2] = tested on: human adenocarcinoma cells of the colon (LOVO); test: Cytotoxic effect on LOVO cells, colony formation in culture; assay type: cell-based; settings: dose required to reduce by 50% the number of colonies, 37° C., 12-14 days, read-out: ID50 LOVO
Protocol: as §1

[3] = Water solubility; assay type: physicochemical
Description: By modification of the nature of the ester groups it is possible to alter the water solubility, lipophilicity and rate of conversion to the active cytotoxic molecules (I). […] Similarly, increased lipophilicity may be obtained in these prodrugs by the introduction of, for example, hydrocarbon groupings such as isobutyl or benzyl and this is reflected by the relatively high Rf values in a 50% v/v chloroform/ethanol/SiO2 thin layer chromatography system as recorded in the Examples given hereinafter. An increased lipophilicity favours better absorption and changes in tissue distribution such as greater penetration of the central nervous system. The more lipophilic products are also the most attractive candidates for the percutaneous treatment of psoriasis. Further, depending upon whether R3 is an electron-withdrawing group, for example benzyl, propargyl or carbethoxymethyl, or an electron-repelling group, for example isobutyl, hydroxyethyl or methoxyethyl, the rate of conversion of the compound (II) to the corresponding compound (I) can be speeded up or slowed down. Thus, by providing some control over the water solubility, lipophilicity and rate of generation of the active species, the prodrug compounds of the present invention provide the ability to modify the tissue distribution and pharmacodynamics of the dioxopiperazine drugs with consequential therapeutic benefit to the patient.

[4] = Incubation under physiological conditions: formation of (I) from the 14C-labelled dimethyl ester and hydrolysis of the diimide (HPLC); assay type: physicochemical; settings: pH 7.2, 37° C.
Protocol: (B) The rate of formation of the active antitumor agent (I) having R1 […] R2 =H from the corresponding ^14 C-labelled dimethyl ester (II) (R1 =R2 =H, R3 =CH3) following incubation under physiologically conditions, i.e. at 37° C. and pH and 7.2 in normal (0.15M) phosphate buffered saline [Practical Immunology, Hudson and hay (editors), Blackwell Scientific Publications, Second Edition, 1980, page 336] was studied. Sample of the incubation mixture were fractionated at different time intervals using HPLC with a reverse phase ODS column and an aqueous methanol gradient elution system.

[5] = Absorption by mouth; assay type: in vivo; settings: oral; in words
[6] = esters corresponding to the diimide (I) in which R1 =R2 =H, read-out: water solubilities

Structure (SMILES) | IC50 [1] [µM] | IC50 [2] [µM] | further results
CC(CN(CC(N)=O)CC(=O)OCc1ccccc1[N+](=O)[O-])N(CC(N)=O)CC(=O)OCc1ccccc1[N+](=O)[O-] (racemic) [R1=CH3, R2=H, R3=o-NO2 --CH2 C6 H5, dl-NN'-Di-o-nitrobenzyloxycarbonylmethyl)-NN'-diaminocarbonylmethyl-1,2-diaminopropane] | 16 | 11 | 
C[C@H]([C@H](C)N(CC(N)=O)CC(=O)OCC(=O)O)N(CC(N)=O)CC(=O)OCC(=O)O [R1=CH3, R2=CH3, R3=CH2 CO2 H, meso-NN'-Di-(carboxymethyloxycarbonylmethyl)-NN'-diaminocarbonylmethyl-2,3-diaminobutane] | 1.1 | 0.2 | 
CC(CN(CC(N)=O)CC(=O)OCc1ccccc1)N(CC(N)=O)CC(=O)OCc1ccccc1 (racemic) [R1=CH3, R2=H, R3=CH2 C6 H5, dl-NN'-Dibenzyloxycarbonylmethyl-NN'-diaminocarbonylmethyl-1,2-diaminopropane] | 22 | 17 | 
NC(=O)CN(CCN(CC(N)=O)CC(=O)OCCO)CC(=O)OCCO [R1=H, R2=H, R3=CH2 CH2 OH, NN'-Di-(2-hydroxyethoxy)carbonylmethyl-NN'-diaminocarbonylmethyl-1,2-diaminoethane] |  |  | solubility [3, 6]: > 20 mg/mL
CC(C)COC(=O)CN(CCN(CC(N)=O)CC(=O)OCC(C)C)CC(N)=O [R1=H, R2=H, R3=CH2 CH(CH3)2, NN'-Di-isobutoxycarbonylmethyl-NN'-diaminocarbonylmethyl-1,2-diaminoethane] | 121 | 103 | 
O=C1CN(CCN2CC(=O)NC(=O)C2)CC(=O)N1 [diimide (I) R1=R2=H, 1,2-bis-(3,5-dioxopiperazin-1-yl)ethane, reference compound] |  |  | half-life ([4]; normal (0.15M) phosphate buffered saline, read-out: half life (hydrolysis to an inactive form) (converted)): ~12 h; solubility ([3]; 20° C., pH 7.2, read-out: water solubility): ~0.1 mg/mL (≈ 0.393 mM); absorption by mouth [5]: not being well absorbed by mouth
CC(CN1CC(=O)NC(=O)C1)N1CC(=O)NC(=O)C1 (stereo not drawn) [R1=CH3, R2=H, cyclic imide, reference compound] | 17 | 18 | 
COC(=O)CN(CCN(CC(N)=O)CC(=O)OC)CC(N)=O [R1=H, R2=H, R3=CH3, NN'-Dimethoxycarbonylmethyl-NN'-diaminocarbonylmethyl-1,2-diaminoethane] | 39 | 28 | formation of the active cytotoxic species (I) by cyclisation of the bis-ester ([4]; 0.15M phosphate buffered saline, the Figure, in words): leads to a sustained concentration of the active cytotoxic species; solubility [3, 6]: > 20 mg/mL
CCCCOCCOC(=O)CN(CCN(CC(N)=O)CC(=O)OCCOCCCC)CC(N)=O [R1=H, R2=H, R3=CH2 CH2 O(CH2)3 CH3, NN'-Di-(2-n-butoxyethoxy)carbonylmethyl-NN'-diaminocarbonylmethyl-1,2-diaminoethane] | 36 | 47 | 
NC(=O)CN(CCN(CC(N)=O)CC(=O)OCC(=O)O)CC(=O)OCC(=O)O [R1=H, R2=H, R3=CH2 CO2 H, NN'-Di-(carboxymethyloxycarbonylmethyl)-NN'-diaminocarbonylmethyl-1,2-diamonoethane] | 46 | 67 | 
CC(CN(CC(N)=O)CC(=O)OCc1ccc([N+](=O)[O-])cc1)N(CC(N)=O)CC(=O)OCc1ccc([N+](=O)[O-])cc1 (racemic) [R1=CH3, R2=H, R3=p-NO2 --CH2 C6 H5, dl-NN'-Di-p-nitrobenzyloxycarbonylmethyl-NN'-diaminocarbonylmethyl-1,2-diaminopropane] | 21 | 14 | 
